Measurements taken from patent publication US9248150B2 (priority 2009, dated 2016).
Where “and” joins values, the source holds several entries; their conditions need not be identical. Equal values may be shown once. Entries after “also recorded” stand apart in the source; their conditions may differ.

Legend:
UB/OC-1 cells [1] = assay: ROS generation by H2DCFDA fluorescence, confocal microscopy; type: cell-based
Excerpt: Imaging of ROS generation was done as previously described (P. Puntambekar et al., Essential role of Rac1/NADPH oxidase in nerve growth factor induction of TRPV1 expression, J. NEUROCHEM. 95: 1689-1703 (2005)).

NOX3 mRNA [2] = assay: NOX3 mRNA by real time RT-PCR in UB/OC-1 cells; type: cell-based
Procedure: RNA was isolated by adding 1 ml TRI reagent to 100 mg of cochlear tissue or 0.5 ml TRI reagent per well of each six well plate. Tissues were homogenized in TRI reagent using a Polytron (setting 7, 15 sec) and centrifuged at 12,000×g for 10 min at 4° C. The remainder of the procedure was identical to that described in D. Mukherjea et al., NEUROSCIENCE 139:733-740 (2006).
(§1) For real time reverse transcriptase polymerase chain reaction (RT-PCR), one microgram of total RNA was converted to cDNA using iScript cDNA Synthesis Kit (Bio-Rad, Hercules, Calif.) and sample preparations were performed essentially as previously described (D. Mukherjea et al., NEUROSCIENCE 139:733-740 (2006)). Amplification and detection was performed with the Cepheid Smart Cycler Detection System. On completion of amplification, the melting curve analysis was performed by cooling the reaction to 60° C. and then heating slowly 95° C., according to the instruction of manufacturer (Cepheid systems). The cycle number at which the sample reaches the threshold fluorescent intensity is termed the cycle threshold (Ct). The relative change in mRNA levels between untreated control (1) and treated sample (2) was measured using the formula: 2-ΔΔCt (R. Soong et al., Quantitative reverse transcription-polymerase chain reaction detection of cytokeratin 20 in noncolorectal lymph nodes, CLIN. CANCER RES. 7:3423-3429 (2001)). Relative change in mRNA levels between samples was expressed as a percentage of normal control. Negative controls for both target gene and GAPDH was used for all reaction groups. Real time PCR products were analyzed on a 2% agarose gel to verify the correct product sizes and visualization of the amplified product was effected using the dye SyBr Green I (Molecular Probes, Eugene, Oreg.).

NOX3 = NOX3 immunoreactivity in cochlea sections; type: in vivo, male Wistar rats
KIM-1 mRNA [3] = assay: KIM-1 mRNA by real time RT-PCR in UB/OC-1 cells; type: cell-based
Procedure: as §1, with “Negative controls for both target gene and GAPDH was used for all reaction groups.” left out, “Oreg.). […]” for “Oreg.).”

TRPV1 mRNA [4] = assay: TRPV1 mRNA by real time RT-PCR in UB/OC-1 cells; type: cell-based
Procedure: as §1, with “Negative controls for both target gene and GAPDH was used for all reaction groups.” left out, “Oreg.). […]” for “Oreg.).”

KIM-1 = KIM-1 immunoreactivity in cochlea sections; type: in vivo, male Wistar rats; conditions: 72 h
Procedure: Cochleas were harvested 72 h later, fixed in 4% paraformaldehyde, decalcified, sectioned and stained for KIM1 immunoreactivity. FIG. 3C is a panel of photomicrographs of the cochlea sections from following the different treatment conditions and stained for KIM-1 immunoreactivity. […] (SVA-stria vascularis, OHC-outer hair cell, RM-Reissner's membrane, SG—spiral ganglion).

UB/OC-1 cells [5] = assay: Intracellular Ca2+ release by Fluo-4AM imaging; type: cell-based
Procedure: UB/OC-1 cells were grown on glass coverslips. […] After incubation, cells were washed once with physiological buffer and then imaged by a Fluoview confocal microscope (Olympus Imaging America Inc., Center Valley, Pa., USA).

UB/OC-1 hair cells = assay: Cell viability by trypan blue staining; type: cell-based
Procedure: Cells were then treated with trypan blue and the number of viable cells per high power field determined and expressed as a percent of total cell per field. […] Data are present as the mean±standard error from four independent coverslips.

[6] = test system: AT6.1 rat prostate cancer cells; assay: Cisplatin killing of tumor cells (imaging); type: cell-based
Excerpt: Cells were fixed with 4% paraformaldehyde and imaged. FIG. 5B is a panel of photomicrographs of the cell images.

[7] = test system: TRP and P2x receptor channels in UB/OC-1 cells; assay: FM1-43 dye uptake via TRP and P2x channels; type: cell-based; conditions: for basal FM1-43 uptake (fluorescence): added alone
Excerpt: FM1-43 is selectively taken up by cells expressing the TRP and P2x receptor channels.
Cells were scanned every 6 sec by Argon laser (480 nm) and at the 6th scan FM1-43 dye was dropped on the cells. FIG. 6 is panel of photomicrographs of the cells following dye exposure. […] Each gray-scale image to the right of each fluorescence image is the differential interference constrast image for the cells shown in the corresponding fluorescence image.

[8] = test system: outer hair cells of the organ of Corti; assay: Outer hair cell damage by scanning electron microscopy, i.p. transplatin; type: in vivo, rat; conditions: 72 h
KIM-1 mRNA [9] = assay: Kidney KIM-1 mRNA by real time RT-PCR; type: in vivo, male Wistar rats; conditions: 72 h
Excerpt: (§2) Kidneys were harvested, total RNA was isolated, reverse transcribed and real time RT-PCR performed substantially as described herein above. FIG. 8A is a bar graph of the increase in mRNA expression for each of KIM-1 (green), NOX3 (blue) and TRPV1 (red) observed. […] Attenuation of these markers by transplatin is indicative of its nephroprotective role.

NOX3 mRNA [10] = assay: Kidney NOX3 mRNA by real time RT-PCR; type: in vivo, male Wistar rats; conditions: 72 h
Excerpt: as §2

TRPV1 mRNA [11] = assay: Kidney TRPV1 mRNA by real time RT-PCR; type: in vivo, male Wistar rats; conditions: 72 h
Excerpt: as §2

[12] = test system: outer hair cells of the organ of Corti; assay: Outer hair cell damage/loss by SEM, trans-tympanic transplatin; type: in vivo, Wistar rats
Procedure: Post-treatment ABRs were conducted 72 h later. […] This was abrogated by pretreatment with trans-tympanic transplatin. […] Arrows indicate areas of damage to outer hair cells.

[13] = Cisplatin-induced hearing loss, ABR threshold shifts, i.p. transplatin; type: in vivo, male Wistar rats
Excerpt: Data are presented as the mean±standard error of 8 ears examined from 4 animals per group.

Body weight loss = type: in vivo, rat; conditions: data not shown
[14] = test system: dorsal root ganglion (DRG) cells; assay: NGF-induced ROS generation in dorsal root ganglion cells (H2DCFDA); type: cell-based, neonatal mice; conditions: transplatin 2.5 μM 30 min prior to NGF 100 ng/ml
Procedure: Recent studies have shown that ROS generation is the single most important mediator of inflammation. Dorsal root ganglion (DRG) cells isolated from neonatal mice have shown increased ROS generation in response to nerve growth factor (NGF; data not shown). […] Fluorescent images were obtained at 0 sec and collected over a period of 5 min after addition of NGF (100 ng/ml). NGF generated ROS is shown by changes in fluorescence intensity over time.

[15] = test system: HEK-293 cells stably transfected with TRPV1 receptor; assay: Capsaicin-induced ROS generation in HEK-VR1 cells; type: cell-based; conditions: transplatin 2.5 μM pre-treatment; data not shown
Excerpt: Thus, transplatin can be useful in the treatment of inflammatory conditions, such as arthritis, inflammatory and chronic pain and cancer pain.

[16] = Body temperature after i.p. transplatin; type: in vivo, rat; conditions: transplatin 5.5 mg/kg i.p., every 30 min for 150 min, 2 rats
Procedure: TRPV1 antagonists were initially developed as novel treatments for inflammatory pain. However, it was observed that the administration of classical TRPV1 antagonists produced hyperthermia in animals and human (N. R. Gavva, Body-temperature maintenance as the predominant function of the vanilloid receptor TRPV1. TRENDS PHARMACOL SCI 29:550-557 (2007)), underscoring a role of TRPV1 in the control of body temperature. […] Body temperature was then recorded every 30 min for 150 min. FIG. 11 is a graph of the results observed in two rats (Tp) and a control animal (PBS).

cellular DNA = conditions: cited from earlier work
[17] = transplatin 1, 2.5, 10 μM 30 min prior to cisplatin 5 μM 24 h
[18] = transplatin 5.5 mg/kg i.p. followed by cisplatin 11 mg/kg i.p.
[19] = transplatin 1 μM 30 min prior to cisplatin 5 μM
[20] = transplatin 1 mg/kg i.p. then cisplatin 11 mg/kg i.p.
[21] = transplatin 5.5 mg/kg i.p. alone
[22] = trans-tympanic transplatin 50 μl of 0.5 mg/ml, then cisplatin 11 mg/kg i.p.

N.N.[Cl][Pt][Cl] [cisplatin, reference compound]
ROS generation (H2DCFDA fluorescence) (UB/OC-1 cells [1]; cisplatin 2.5 μM, 30 min): marked increase in ROS generation; also recorded: increases ROS generation
NOX3 mRNA (NOX3 mRNA [2]; cisplatin 5 μM): increase in NOX3 mRNA
NOX3 immunoreactivity in cochlea (OHC, stria vascularis, spiral ganglion) (NOX3; cisplatin 11 mg/kg i.p., 72 h): increased NOX3 protein
increase in KIM-1 mRNA expression over vehicle treated controls (KIM-1 mRNA [3]; cisplatin 5 μM, 24 h): 4 fold and 4±0.5 fold
increase in TRPV1 mRNA expression over vehicle treated controls (TRPV1 mRNA [4]; cisplatin 5 μM, 24 h): 3.6 fold and 3.5±0.7 fold
KIM-1 immunolabeling in organ of Corti / cochlea sections (KIM-1; cisplatin 11 mg/kg i.p.): induction of KIM-1 immunolabeling
intracellular Ca2+ (Fluo-4AM fluorescence) (UB/OC-1 cells [5]; cisplatin 5 μM, 30 min): increased fluorescence
cell death (UB/OC-1 hair cells; cisplatin 20 μM, 24 h): ~80%
cell loss ([6]; cisplatin 100 μM, 24 h): ~80%
uptake of FM1-43 dye ([7]; cisplatin 5 μM alone, 30 min): increased uptake of FM1-43 dye
outer hair cells damaged per field, basal turn of organ of Corti ([8]; cisplatin 11 mg/kg i.p.): ~40%
kidney KIM-1 mRNA expression (KIM-1 mRNA [9]; cisplatin 11 mg/kg i.p.): 50 fold
kidney NOX3 mRNA expression (NOX3 mRNA [10]; cisplatin 11 mg/kg i.p.): 4 fold
kidney TRPV1 mRNA expression (TRPV1 mRNA [11]; cisplatin 11 mg/kg i.p.): 6 fold
outer hair cell damage/loss ([12]; cisplatin 11 mg/kg i.p., 72 h): ~70%

N.N.N.N.N.N.N.N.N.N.N.N.N.N.[Cl-].[Cl-].[Cl-].[Cl-].[Cl-].[Cl-].[O-2].[O-2].[Ru+3].[Ru+3].[Ru+4] [ruthenium red, reference compound]
basal FM1-43 uptake (fluorescence) [7]: less inhibition of basal fluorescence than transplatin

N.N.[Cl][Pt][Cl] [transplatin, trans-diamminedichloroplatinum (II)]
cisplatin-induced increase in ROS generation (UB/OC-1 cells [1]; pretreatment with transplatin 1 μM, then cisplatin 2.5 μM 30 min): attenuated; also recorded: significantly reduced
ROS generation (UB/OC-1 cells [1]; transplatin administered alone): did not stimulate ROS generation
cisplatin-induced increase in NOX3 mRNA (NOX3 mRNA [2]; [17]): attenuated; also recorded: down regulates the increase in NOX3 mRNA
NOX3 mRNA expression (NOX3 mRNA [2]; transplatin alone (1, 2.5 μM)): almost no expression of NOX3 mRNA
cisplatin-induced increase in NOX3 in cochlea (NOX3; transplatin 5.5 mg/kg i.p. immediately before cisplatin 11 mg/kg i.p., 72 h): reduced
NOX3 expression in cochlea vs vehicle control (NOX3; transplatin alone): did not increase NOX3 expression
cisplatin-induced KIM-1 mRNA (KIM-1 mRNA [3]; [17]): attenuated to control levels
cisplatin-induced TRPV1 mRNA expression (TRPV1 mRNA [4]; transplatin 1, 2.5, 10 μM 30 min prior to cisplatin 5 μM 24 h, 10 μM best inhibition): attenuated; also recorded: abrogated by transplatin at higher concentrations
cisplatin-induced KIM-1 immunolabeling in cochlea (KIM-1; [18]): reduced; also recorded: decreased
cisplatin-induced increase in intracellular Ca2+ (UB/OC-1 cells [5]; [19]): abrogated
cell survival (UB/OC-1 hair cells; transplatin 1, 2.5, 10 μM 30 min prior to cisplatin 20 μM 24 h, depending on dose): 80-97%
cell survival compared to vehicle control ([6]; transplatin alone): did not cause significant change in cell survival
basal FM1-43 uptake (fluorescence) [7]: reduced fluorescence below that of the control cells
FM1-43 dye entry after cisplatin [7, 19]: decreased entry of the dye
animals protected [13, 20]: 75%
reductions in ABR thresholds (number protected) [13, 20]: 6 of 8
auditory protection ([13]; transplatin 3 mg/kg i.p. then cisplatin 11 mg/kg i.p.): complete protection
auditory protection ([13]; transplatin 5.5 mg/kg i.p. then cisplatin 11 mg/kg i.p.): complete protection
ABR thresholds ([13]; transplatin alone): did not affect the ABR thresholds
outer hair cells damaged per field, basal turn of organ of Corti ([8]; transplatin 5.5 mg/kg i.p. pretreatment then cisplatin 11 mg/kg i.p.): below 10%
weight loss (Body weight loss; transplatin by itself): did not produce weight loss
cisplatin-mediated weight loss (Body weight loss; transplatin with cisplatin): did not inhibit cisplatin-mediated weight loss
kidney KIM-1 mRNA expression compared to PBS controls (KIM-1 mRNA [9]; [21]): 1.7 fold
kidney KIM-1 mRNA expression (KIM-1 mRNA [9]; [18]): 1.1 fold
kidney NOX3 mRNA expression compared to PBS controls (NOX3 mRNA [10]; [21]): 1.3 fold
kidney NOX3 mRNA expression (NOX3 mRNA [10]; [18]): 1.7 fold
kidney TRPV1 mRNA expression compared to PBS controls (TRPV1 mRNA [11]; [21]): 0.5 fold
kidney TRPV1 mRNA expression (TRPV1 mRNA [11]; [18]): 1.5 fold
NGF-induced ROS generation [14]: inhibited ROS generation
ROS generation by 10 μM capsaicin [15]: inhibited
cisplatin-induced outer hair cell damage (SEM morphology) [12, 22]: almost completely abrogated
outer hair cell damage/loss [12, 22]: ~7%
body temperature [16]: did not produce any apparent increase in body temperature; also recorded: no apparent trend of higher body temperatures
time of maximum DNA binding (cellular DNA): 6 h
